ChEMBL document CHEMBL1201862, “PubChem BioAssay data set” (2004)
Calls of active or inactive are those of the source.

Columns and labels:
Beta-lactamase [1] = molecular target: T1, Beta-lactamase (Pseudomonas aeruginosa, UniProt Q79MP6); assay: inhibition of IMP-1 beta-lactamase activity – biochemical, epi-absorbance, selectivity assay for VIM-2 inhibitor project, dose response (AID 1920)
Beta-lactamase [2] = molecular target: Beta-lactamase (Salmonella choleraesuis (strain SC-B67), UniProt Q5J463); assay: Epi-absorbance-based counterscreen for selective VIM-2 inhibitors: dose response biochemical high throughput screening assay to identify inhibitors of TEM-1 serine-beta-lactamase.
Beta-lactamase [3] = molecular target: T1, Beta-lactamase; assay: […] counterscreen for selective VIM-2 inhibitors: dose response biochemical high throughput screening assay to identify inhibitors of IMP-1 metallo-beta-lactamase.
[4] = toxicity toward HepG2 liver cells – cell-based, plate reader, cherry-pick, antagonist series, cytotoxicity control, dose response (AID 743416); type: functional
[5] = A549 cell cytotoxicity, dose response, cytotoxicity control, plate reader, cherry-pick, antagonist series (AID 743412); type: functional, cell-based
[6] = blockade of melanocortin 4 receptor signaling – cell-based, plate reader, cherry pick, counter-screen for LGR2 antagonist project, dose response (AID 743444); type: functional;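 note: transfected HEK 293 cells stimulated with alpha-MSH peptide; potency of inhibitors of the alpha-MSH evoked signal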
[7] = blockers of bursicon-stimulated LGR2 cAMP reporter – cell-based, HEK293, CRE-luciferase reporter, cherry pick, set 2, dose response (AID 743343); type: functional;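 note: transfected cells were stimulated with diluted bursicon conditioned medium after compound addition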
[8] = viability loss in HEK293 cells – cell-based, plate reader, cherry-picked samples, cytotoxicity control, dose response (AID 743446); type: functional
[9] = molecular target: T2, Trace amine-associated receptor 1 (Homo sapiens, UniProt Q96RJ0); assay: Counterscreen for agonists of the human trace amine associated receptor 1 (hTAAR1): Fluorescence-based cell-based high throughput dose response assay to identify hTAAR1 agonist that also desensitize TAAR1 receptor response.; type: functional
T2 sequence (Q96RJ0 whole entry): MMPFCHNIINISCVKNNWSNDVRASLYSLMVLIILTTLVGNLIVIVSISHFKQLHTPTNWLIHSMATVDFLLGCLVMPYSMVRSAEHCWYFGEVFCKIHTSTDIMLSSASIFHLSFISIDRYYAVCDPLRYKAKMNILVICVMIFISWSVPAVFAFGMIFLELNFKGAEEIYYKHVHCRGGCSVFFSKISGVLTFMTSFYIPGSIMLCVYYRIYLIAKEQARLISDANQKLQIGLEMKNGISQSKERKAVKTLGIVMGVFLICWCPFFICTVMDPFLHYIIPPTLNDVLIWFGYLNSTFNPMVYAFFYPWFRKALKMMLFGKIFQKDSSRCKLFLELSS

cells [10] = type: functional, cell-based
[11] = molecular target: T2, Trace amine-associated receptor 1; assay: Fluorescence-based cell-based high throughput dose response assay to identify agonists of the human trace amine associated receptor 1 (TAAR1).; type: functional
cells [12] = type: functional, cell-based; remark: listed apart in the source
[13] = Counterscreen for activators of the function of SWI/SNF related, matrix associated, actin dependent regulator of chromatin, subfamily a, member 2 (SMARCA2, BRM): Luminescence-based cell-based high throughput dose response assay to identify non-selective compounds using the VP16 reporter assay.; type: functional
[14] = molecular target: SWI/SNF-related matrix-associated actin-dependent regulator of chromatin subfamily A member 2 (Homo sapiens, UniProt P51531); assay: Luminescence-based cell-based high throughput dose response assay to identify activators of the function of SWI/SNF related, matrix associated, actin dependent regulator of chromatin, subfamily a, member 2 (SMARCA2, BRM).; type: functional
[15] = molecular target: T3, Adenosylmethionine-8-amino-7-oxononanoate aminotransferase (Mycobacterium tuberculosis, UniProt P9WQ81); assay: Mycobacterium tuberculosis BioA enzyme inhibitor Measured in Biochemical System Using Plate Reader - 2163-02_Inhibitor_Dose_CherryPick_Activity.; type: functional, Mycobacterium tuberculosis UT205
T3 sequence (P9WQ81 whole entry): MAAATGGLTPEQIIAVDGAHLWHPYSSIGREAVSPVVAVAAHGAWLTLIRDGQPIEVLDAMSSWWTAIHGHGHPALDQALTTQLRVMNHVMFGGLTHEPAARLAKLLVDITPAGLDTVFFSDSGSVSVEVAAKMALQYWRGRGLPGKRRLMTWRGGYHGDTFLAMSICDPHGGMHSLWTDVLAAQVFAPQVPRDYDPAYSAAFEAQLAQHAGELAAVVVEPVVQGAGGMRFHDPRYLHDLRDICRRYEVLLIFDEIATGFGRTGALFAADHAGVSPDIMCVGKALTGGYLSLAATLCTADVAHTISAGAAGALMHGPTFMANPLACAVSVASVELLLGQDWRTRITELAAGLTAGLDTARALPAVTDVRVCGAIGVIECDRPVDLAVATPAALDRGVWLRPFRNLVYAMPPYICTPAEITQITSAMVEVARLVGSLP

[16] = activation of miR-122 Renilla sensor silencing – cell-based, Huh7 psiCHECK-miR122, Renilla luciferase, cherry-picked, dose response (AID 651956); type: functional;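 note: huh7 hepatoma cells stably carrying a psiCHECK-2 miR-122 sensor plasmid; renilla luciferase signal reporting endogenous miR-122 activity after 48 h compound exposure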
[17] = general mammalian cell viability loss – activator set, cherry-pick, cytotoxicity control for miR-122 modulator project, dose response (AID 720690); type: functional, cell-based;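 note: HEK293T human cells scored for general mammalian cytotoxicity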
[18] = TNFa-induced NF-kB reporter signal decrease – HEK293 LMP1 reporter cells, dry powder, set 2, selectivity assay for EBV LMP1 NF-kB inhibitor project, dose response (AID 624369); type: functional
[19] = general mammalian cell viability loss – inhibitor set, cherry-pick, set 2, cytotoxicity control for miR-122 modulator project, dose response (AID 720697); type: functional, cell-based

T1 sequence (Q79MP6 whole entry): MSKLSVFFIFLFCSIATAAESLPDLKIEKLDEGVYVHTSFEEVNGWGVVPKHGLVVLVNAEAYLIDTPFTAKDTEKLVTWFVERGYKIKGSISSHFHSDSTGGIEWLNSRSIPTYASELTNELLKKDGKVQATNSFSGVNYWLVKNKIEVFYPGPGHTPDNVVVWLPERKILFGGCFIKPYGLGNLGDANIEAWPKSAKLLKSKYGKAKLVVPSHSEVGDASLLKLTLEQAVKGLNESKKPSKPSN
Chain of Beta-lactamase (Salmonella choleraesuis (strain SC-B67), UniProt Q5J463) (Q5J463 whole entry): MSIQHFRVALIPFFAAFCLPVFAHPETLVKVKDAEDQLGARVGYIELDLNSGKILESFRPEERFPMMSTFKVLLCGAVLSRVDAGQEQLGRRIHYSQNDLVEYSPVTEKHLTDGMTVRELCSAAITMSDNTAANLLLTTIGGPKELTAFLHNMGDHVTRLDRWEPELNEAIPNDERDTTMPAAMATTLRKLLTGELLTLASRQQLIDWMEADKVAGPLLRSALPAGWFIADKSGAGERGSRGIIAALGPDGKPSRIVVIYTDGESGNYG
Chain of SWI/SNF-related matrix-associated actin-dependent regulator of chromatin subfamily A member 2 (P51531 whole entry): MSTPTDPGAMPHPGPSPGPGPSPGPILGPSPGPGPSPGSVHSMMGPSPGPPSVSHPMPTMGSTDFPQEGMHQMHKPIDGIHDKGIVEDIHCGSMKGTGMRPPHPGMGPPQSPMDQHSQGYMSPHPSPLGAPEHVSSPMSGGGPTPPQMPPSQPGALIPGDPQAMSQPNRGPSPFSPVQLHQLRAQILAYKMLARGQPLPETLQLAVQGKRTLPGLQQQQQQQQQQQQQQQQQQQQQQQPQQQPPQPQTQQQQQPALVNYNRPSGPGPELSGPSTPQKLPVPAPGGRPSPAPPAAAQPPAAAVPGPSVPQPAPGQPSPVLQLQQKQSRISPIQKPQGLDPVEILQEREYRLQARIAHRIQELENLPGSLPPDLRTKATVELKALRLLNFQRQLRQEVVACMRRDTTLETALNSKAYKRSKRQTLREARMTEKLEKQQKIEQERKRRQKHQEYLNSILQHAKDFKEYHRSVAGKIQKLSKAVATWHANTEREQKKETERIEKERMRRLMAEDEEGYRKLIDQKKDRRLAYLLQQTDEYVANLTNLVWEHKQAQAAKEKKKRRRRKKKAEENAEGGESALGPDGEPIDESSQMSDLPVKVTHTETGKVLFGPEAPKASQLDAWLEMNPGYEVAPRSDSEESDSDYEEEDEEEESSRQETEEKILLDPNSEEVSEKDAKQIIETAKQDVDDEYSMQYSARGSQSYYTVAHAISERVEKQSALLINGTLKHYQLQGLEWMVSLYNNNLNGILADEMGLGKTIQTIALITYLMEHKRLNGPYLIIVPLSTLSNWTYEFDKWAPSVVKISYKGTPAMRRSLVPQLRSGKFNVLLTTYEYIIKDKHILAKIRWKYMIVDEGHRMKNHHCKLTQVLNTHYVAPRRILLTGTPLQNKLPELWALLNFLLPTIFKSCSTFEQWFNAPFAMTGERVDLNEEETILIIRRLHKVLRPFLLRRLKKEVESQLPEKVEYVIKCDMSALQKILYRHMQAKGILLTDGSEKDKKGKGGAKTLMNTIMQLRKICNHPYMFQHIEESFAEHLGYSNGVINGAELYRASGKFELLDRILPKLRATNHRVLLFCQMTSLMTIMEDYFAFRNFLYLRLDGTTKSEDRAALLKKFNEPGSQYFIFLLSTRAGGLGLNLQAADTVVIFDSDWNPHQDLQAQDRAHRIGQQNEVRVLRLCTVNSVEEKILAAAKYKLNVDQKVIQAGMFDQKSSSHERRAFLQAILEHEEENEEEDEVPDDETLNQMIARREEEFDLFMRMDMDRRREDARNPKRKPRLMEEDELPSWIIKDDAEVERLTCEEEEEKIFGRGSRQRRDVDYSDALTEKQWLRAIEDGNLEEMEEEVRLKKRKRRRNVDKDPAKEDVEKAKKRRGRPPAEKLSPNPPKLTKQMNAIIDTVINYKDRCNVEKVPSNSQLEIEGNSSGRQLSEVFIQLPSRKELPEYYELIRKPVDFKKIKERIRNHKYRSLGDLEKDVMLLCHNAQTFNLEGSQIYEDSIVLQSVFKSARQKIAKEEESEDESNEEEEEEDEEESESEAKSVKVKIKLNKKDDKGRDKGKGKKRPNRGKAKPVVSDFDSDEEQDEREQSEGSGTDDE

CCCc1cc(=O)oc2c3c(cc(OCC(=O)N4CCC[C@H]4C(=O)O)c12)OC(C)(C)CC3
IC50 (Beta-lactamase [1]): > 59.6 µM (inactive) | IC50 (Beta-lactamase [2]): > 59.6 µM (inactive) | IC50 (Beta-lactamase [3]): > 59.6 µM (inactive)

Nc1c(C(=O)N2CCOCC2)sc2nc3c(cc12)CCCC3
AC50 [4]: > 52 µM (inactive) | AC50 [5]: > 52 µM (inactive) | AC50 [6]: 3.2 µM (active) | AC50 [7]: 2.38 µM (active) | AC50 [8]: > 52 µM (inactive)

O=C(NCCc1ccccc1)C(=O)NCC1OCCN1S(=O)(=O)c1ccccc1 (centres undefined)
IC50 [9]: 11.8 µM (inactive) | EC50 (cells [10]): > 29.9 µM (inactive) | EC50 [11]: 5.39 µM (active) | IC50 (cells [12]): > 29.9 µM (inactive)

Clc1ccc(-c2nc3ccc(Cl)cn3c2Cc2ccsc2)cc1
EC50 [13]: > 91.2 µM (inactive) | EC50 [14]: > 91.2 µM (inactive)

O=C(c1ccncc1)N1CC[C@@H]2[C@H](CO)Nc3ccc(Br)cc3[C@@H]21
AC50 [15]: 1.17 µM (active)

O=C(c1ccncc1)N1CC[C@@H]2[C@H]1c1cc(Br)ccc1N[C@@H]2CO
AC50 [15]: 0.894 µM (active)

CN1C(=O)c2cc(NC(=O)c3ccc(C(F)(F)F)cc3)ccc2OC[C@@H]2O[C@@H](CC(=O)NCc3ccc4c(c3)OCO4)CC[C@@H]21
AC50 [16]: 13.8 µM (active) | AC50 [17]: 23.8 µM (active)

O=C(NCCc1ccccc1Cl)[C@@H]1CCCN1C(=O)[C@@H](NC(=O)N1CCOCC1)C1CCCCC1
IC50 [9]: 6.35 µM (active) | EC50 (cells [10]): > 29.9 µM (inactive) | EC50 [11]: 5.36 µM (active) | IC50 (cells [12]): > 29.9 µM (inactive)

C[C@@H]1CN([C@H](C)CO)S(=O)(=O)c2ccc(/C=C/c3ccccc3)cc2O[C@H]1CN(C)C(=O)NC1CCCCC1
AbsAC35 [18]: 64.61 µM

CCNC(=O)C[C@H]1CC[C@@H]2[C@@H](COc3ccc(NC(=O)c4cccc(C(F)(F)F)c4)cc3C(=O)N2C)O1
AC50 [19]: 0.469 µM (active)
